Measured values taken from US20080021026A1, “BENZOTHIOPHENE INHIBITORS OF RHO KINASE” (priority 2006, published 2008).
pIC50: −log10 of the molar value.

Target: T1, recombinant N-terminal GST-tagged human Rho kinase 2 (ROCK2, amino acids 1-552) (Homo sapiens, UniProt O75116)
T1 construct: ROCK2, amino acids 1-552; purchased Invitrogen Inc. PV3759
Assay: In vitro Rho kinase assay (luciferase-based ATP consumption), ROCK2
Type: biochemical
Details: recombinant GST-tagged human ROCK2, luciferase-based ATP consumption; read-out: ROCK2 IC50
Method: In Vitro Rho Kinase Assay
Rho kinase biochemical assays described below depend on firefly luciferase-based, indirect measurement of total ATP consumption by the kinase following incubation with substrate and ATP. 25 μl of Rho kinase assay buffer (20 mM Tris-HCL [pH 7.5], 1 mM MgCl2, 0.4 mM CaCl2, 0.15 mM EGTA, 0.1 mg/ml bovine serum albumin) containing 0.82 μg/ml of recombinant N-terminal GST-tagged human Rho kinase 1 (ROCK1, amino acids 1-535, Invitrogen Inc., cat. #PV-3691) or recombinant N-terminal GST-tagged human Rho kinase 2 (ROCK2, amino acids 1-552, Invitrogen Inc., cat #PV3759), 100 μg/ml S6 peptide substrate (related to amino acids 218-249 of the human 40S ribosomal protein S6, and suitable for ROCK1 or ROCK2, e.g. Upstate/Millipore Inc., cat #12-420), and 3 µM ATP are dispensed to wells of a 384 multi-well opaque plate. The plate is centrifuged for 30 seconds at approximately 200×g. 240 nl of test compound in DMSO is dispensed to each well by passive pin transfer. The lag phase of this in vitro kinase reaction permits addition of compounds soon after the reaction initiates. The reaction is allowed to incubate at 30° C. for 2 hours. The assay plates are sealed and maintained in a humidified environment. After 2 hours, 25 μl of easylite protein kinase assay reagent (Perkin-Elmer, Inc.) is dispensed. After an additional 10 minute incubation at room temperature (about 22° C.), luminescence activity is measured on a Molecular Devices Analyst multi-mode plate reader or other suitable plate reader. Kinase inhibition results in less ATP consumption, and therefore increased luminescence signal. Negative control activity is measured with DMSO lacking any test compound. The positive control is 2-methyl-1-(4-methylisoquinolin-5-ylsulfonyl)perhydro-1,4-diazepine hydrochloride (aka H-1152P, HCl salt). Efficacy is measured as a percentage of positive control activity. […] In some cases, kinase reactions and compound testing are performed in 1536 multi-well plates under similar conditions, with assay volumes appropriately scaled. The designation NT means the cited example was not tested.

T1 sequence (O75116 1-552): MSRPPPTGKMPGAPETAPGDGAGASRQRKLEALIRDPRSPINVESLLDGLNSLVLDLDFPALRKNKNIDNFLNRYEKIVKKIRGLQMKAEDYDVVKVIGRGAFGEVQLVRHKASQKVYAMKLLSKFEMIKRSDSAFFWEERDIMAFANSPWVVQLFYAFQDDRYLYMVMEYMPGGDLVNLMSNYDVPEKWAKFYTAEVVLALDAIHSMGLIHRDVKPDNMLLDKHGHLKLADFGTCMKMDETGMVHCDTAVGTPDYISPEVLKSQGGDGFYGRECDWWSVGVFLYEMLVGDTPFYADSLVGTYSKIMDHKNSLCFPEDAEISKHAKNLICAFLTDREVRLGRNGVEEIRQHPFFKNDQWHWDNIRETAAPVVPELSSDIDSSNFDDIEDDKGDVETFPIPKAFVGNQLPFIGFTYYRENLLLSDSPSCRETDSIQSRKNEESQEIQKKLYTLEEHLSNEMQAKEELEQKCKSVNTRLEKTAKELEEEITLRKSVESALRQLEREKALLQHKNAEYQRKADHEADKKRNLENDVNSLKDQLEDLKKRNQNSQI

SMILES	pIC50
Cc1c(-c2ccnc(N)n2)sc2ccc(C(=O)N(C)Cc3cccc4ccccc34)cc12 [Example 553, CN(Cc1cccc2ccccc12)C(═O)c3ccc4sc(c(C)c4c3)-c5ccnc(N)n5]	< 5.30
Cc1ccc(N2CCN(C(=O)c3ccc4sc(-c5ccnc(N)n5)c(C)c4c3)CC2)cc1C [Example 537, Cc1ccc(cc1C)N2CCN(CC2)C(═O)c3ccc4sc(c(C)c4c3)-c5ccnc(N)n5]	< 5.30
Cc1c(-c2ccnc(N)n2)sc2ccc(C(=O)N3CCC(Cc4ccccc4)CC3)cc12 [Example 520, Cc1c(sc2ccc(cc12)C(═O)N3CCC(CC3)Cc4ccccc4)-c5ccnc(N)n5]	< 5.30
COc1ccc(N2CCN(C(=O)c3ccc4sc(-c5ccnc(N)n5)c(C)c4c3)CC2)cc1OC [Example 570, COc1ccc(cc1OC)N2CCN(CC2)C(═O)c3ccc4sc(c(C)c4c3)-c5ccnc(N)n5]	< 5.30
Cc1cccc(N2CCN(C(=O)c3ccc4sc(-c5ccnc(N)n5)c(C)c4c3)CC2)c1C [Example 534, Cc1cccc(N2CCN(CC2)C(═O)c3ccc4sc(c(C)c4c3)-c5ccnc(N)n5)c1C]	< 5.30
Cc1c(-c2ccnc(N)n2)sc2ccc(C(=O)N3CCN(Cc4ccccc4)CC3)cc12 [Example 521, Cc1c(sc2ccc(cc12)C(═O)N3CCN(CC3)Cc4ccccc4)-c5ccnc(N)n5]	< 5.30
Cc1c(-c2ccnc(N)n2)sc2ccc(C(=O)N3CCC(C(N)=O)CC3)cc12 [Example 494, Cc1c(sc2ccc(cc12)C(═O)N3CCC(CC3)C(N)═O)-c4ccnc(N)n4]	< 5.30
COc1ccc(C(=O)CNC(=O)c2ccc3sc(-c4ccnc(N)n4)c(C)c3c2)cc1 [Example 455, COc1ccc(cc1)C(═O)CNC(═O)c2ccc3sc(c(C)c3c2)-c4ccnc(N)n4]	> 5.30
COC(=O)C1CCN(C(=O)c2ccc3sc(-c4ccnc(N)n4)c(C)c3c2)CC1 [Example 504, COC(═O)C1CCN(CC1)C(═O)c2ccc3sc(c(C)c3c2)-c4ccnc(N)n4]	< 5.30
Cc1c(-c2ccnc(N)n2)sc2ccc(C(=O)N3CCN(c4ccc(F)cc4F)CC3)cc12 [Example 546, Cc1c(sc2ccc(cc12)C(═O)N3CCN(CC3)c4ccc(F)cc4F)-c5ccnc(N)n5]	< 5.30
Cc1c(-c2ccnc(N)n2)sc2ccc(C(=O)NCCc3cccc(Cl)c3)cc12 [Example 429, Cc1c(sc2ccc(cc12)C(═O)NCCc3cccc(Cl)c3)-c4ccnc(N)n4]	> 5.30
Cc1ccc(S(=O)(=O)NCCNC(=O)c2ccc3sc(-c4ccnc(N)n4)c(C)c3c2)cc1 [Example 458, Cc1ccc(cc1)S(═O)(═O)NCCNC(═O)c2ccc3sc(c(C)c3c2)-c4ccnc(N)n4]	> 5.30
Cc1c(-c2ccnc(N)n2)sc2ccc(C(=O)NC(C)CCc3ccccc3)cc12 (stereo not drawn) [Example 418, CC(CCc1ccccc1)NC(═O)c2ccc3sc(c(C)c3c2)-c4ccnc(N)n4]	< 5.30
Cc1c(-c2ccnc(N)n2)sc2ccc(C(=O)NC3CC(C)(C)NC(C)(C)C3)cc12 [Example 430, Cc1c(sc2ccc(cc12)C(═O)NC3CC(C)(C)NC(C)(C)C3)-c4ccnc(N)n4]	> 5.30
Cc1c(-c2ccnc(N)n2)sc2ccc(C(=O)N3CCCC(c4ccc(C(F)(F)F)cc4)C3)cc12 (stereo not drawn) [Example 571, Cc1c(sc2ccc(cc12)C(═O)N3CCCC(C3)c4ccc(cc4)C(F)(F)F)-c5ccnc(N)n5]	< 5.30
Cc1c(-c2ccnc(N)n2)sc2ccc(C(=O)N(C)C)cc12 [Example 459, CN(C)C(═O)c1ccc2sc(c(C)c2c1)-c3ccnc(N)n3]	> 5.30
Cc1c(-c2ccnc(N)n2)sc2ccc(C(=O)NCCCNC(=O)OC(C)(C)C)cc12 [Example 443, Cc1c(sc2ccc(cc12)C(═O)NCCCNC(═O)OC(C)(C)C)-c3ccnc(N)n3]	> 5.30
Cc1c(-c2ccnc(N)n2)sc2ccc(C(=O)NCCC#N)cc12 [Example 338, Cc1c(sc2ccc(cc12)C(═O)NCCC#N)-c3ccnc(N)n3]	> 5.30
Cc1c(-c2ccnc(N)n2)sc2ccc(C(=O)NC(C)Cc3ccncc3)cc12 (stereo not drawn) [Example 399, CC(Cc1ccncc1)NC(═O)c2ccc3sc(c(C)c3c2)-c4ccnc(N)n4]	> 5.30

The next lines start with the values.

pIC50	SMILES
> 5.30	CCNC(=O)c1ccc2sc(-c3ccnc(N)n3)c(C)c2c1 [Example 330, CCNC(═O)c1ccc2sc(c(C)c2c1)-c3ccnc(N)n3]
> 5.30	Cc1c(-c2ccnc(N)n2)sc2ccc(C(=O)NCCNC(=O)OC(C)(C)C)cc12 [Example 434, Cc1c(sc2ccc(cc12)C(═O)NCCNC(═O)OC(C)(C)C)-c3ccnc(N)n3]
> 5.30	Cc1c(-c2ccnc(N)n2)sc2ccc(C(=O)N3CCN(c4ccc([N+](=O)[O-])cc4)CC3)cc12 [Example 552, Cc1c(sc2ccc(cc12)C(═O)N3CCN(CC3)c4ccc(cc4)[N+]([O−])═O)-c5ccnc(N)n5]
> 5.30	Cc1c(-c2ccnc(N)n2)sc2ccc(C(=O)NCc3ccncc3)cc12 [Example 366, Cc1c(sc2ccc(cc12)C(═O)NCc3ccncc3)-c4ccnc(N)n4]
> 5.30	C=CCN(C(=O)c1ccc2sc(-c3ccnc(N)n3)c(C)c2c1)C1CCCCC1 [Example 503, Cc1c(sc2ccc(cc12)C(═O)N(CC═C)C3CCCCC3)-c4ccnc(N)n4]
> 5.30	COc1cccc(CNC(=O)c2ccc3sc(-c4ccnc(N)n4)c(C)c3c2)c1 [Example 404, COc1cccc(CNC(═O)c2ccc3sc(c(C)c3c2)-c4ccnc(N)n4)c1]
> 5.30	Cc1c(-c2ccnc(N)n2)sc2ccc(C(=O)N(CCN(C)C)Cc3ccccc3)cc12 [Example 524, CN(C)CCN(Cc1ccccc1)C(═O)c2ccc3sc(c(C)c3c2)-c4ccnc(N)n4]
> 5.30	Cc1c(-c2ccnc(N)n2)sc2ccc(C(=O)NCc3ccc(F)c(Cl)c3)cc12 [Example 432, Cc1c(sc2ccc(cc12)C(═O)NCc3ccc(F)c(Cl)c3)-c4ccnc(N)n4]
> 5.30	Cc1c(-c2ccnc(N)n2)sc2ccc(C(=O)N3CCOCC3)cc12 [Example 466, Cc1c(sc2ccc(cc12)C(═O)N3CCOCC3)-c4ccnc(N)n4]
> 5.30	Cc1c(-c2ccnc(N)n2)sc2ccc(C(=O)NCc3ccccc3)cc12 [Example 363, Cc1c(sc2ccc(cc12)C(═O)NCc3ccccc3)-c4ccnc(N)n4]
> 5.30	CCC(C)NC(=O)c1ccc2sc(-c3ccnc(N)n3)c(C)c2c1 (stereo not drawn) [Example 341, CCC(C)NC(═O)c1ccc2sc(c(C)c2c1)-c3ccnc(N)n3]
> 5.30	Cc1c(-c2ccnc(N)n2)sc2ccc(C(=O)NC(C)CO)cc12 (stereo not drawn) [Example 344, CC(CO)NC(═O)c1ccc2sc(c(C)c2c1)-c3ccnc(N)n3]
> 5.30	Cc1c(-c2ccnc(N)n2)sc2ccc(C(=O)NCc3ccc(F)c(F)c3)cc12 [Example 413, Cc1c(sc2ccc(cc12)C(═O)NCc3ccc(F)c(F)c3)-c4ccnc(N)n4]
> 5.30	Cc1c(-c2ccnc(N)n2)sc2ccc(C(=O)NCCO)cc12 [Example 337, Cc1c(sc2ccc(cc12)C(═O)NCCO)-c3ccnc(N)n3]
> 5.30	Cc1c(-c2ccnc(N)n2)sc2ccc(C(=O)N3CCC(N(C)C)C3)cc12 (stereo not drawn) [Example 484, CN(C)C1CCN(C1)C(═O)c2ccc3sc(c(C)c3c2)-c4ccnc(N)n4]
> 5.30	Cc1c(-c2ccnc(N)n2)sc2ccc(C(=O)N[C@H](CO)Cc3ccccc3)cc12 [Example 422, Cc1c(sc2ccc(cc12)C(═O)N[C@H](CO)Cc3ccccc3)-c4ccnc(N)n4]
> 5.30	Cc1c(-c2ccnc(N)n2)sc2ccc(C(=O)NCCC3CCCN3C)cc12 (stereo not drawn) [Example 386, CN1CCCC1CCNC(═O)c2ccc3sc(c(C)c3c2)-c4ccnc(N)n4]
